For assay [1], the system named is Ba/F3-NRAS-G12D and Ba/F3-NRAS-G12V cells. In words: Flow cytometry apoptosis analysis (annexin V/PI), Ba/F3 mtRAS cells. In kind it is cell-based. As to conditions: 1 μM, 24 h. The method, then:
(§1) For apoptosis analysis, cells (1 × 10^6 cells per sample) were incubated with each compounds for 24 h. Cells were subjected to brief ice-cold PBS washing and subjected to staining with Alexafluor488-conjugated annexin V (Thermo Fisher, A13201), and propidium iodide (PI, Thermo Fisher, P3560). Thereafter, apoptotic cells were classified by FACS Accuri™ C6 Plus (BD Biosciences). Debris and unstained cells and were excluded by gating.
Figure 3 (A, B) The effects of SIJ1795 and SIJ1772 on apoptosis induction in Ba/F3 cells transformed with mtRAS (NRAS-G12D and NRAS-G12V). Cells were treated with 0.1 and 1 μM of SIJ1795, SIJ1772, and GNF-7 for 24 h Western blot analysis was conducted to evaluate the cleaved PARP and level. GAPDH was used as a loading control. (C) Apoptotic cell population (annexin V-positive) was determined by flow cytometry analysis (n = 3). Cells were treated with 1 μM of indicated compounds for 24 h. Statistical significance was calculated by a one-way ANOVA analysis (**p < 0.01, ***p < 0.001).
(In general: Flow cytometry measures light scatter and fluorescence of single cells or particles in a stream.)

Assay [2] deals with cancer cells harboring mtRAS. In words: Soft agar assay (3D clonogenic assay). In kind it is cell-based. As to conditions: 0.1 μM, 14 days. As to the method: Soft agar assay was conducted for 3D clonogenic assay. On the 0.7% bottom agar, cells were seeded in 6-well plate (5 × 10^3 cells/well) with 0.35% low melting agar (Lonza, #50101) containing the complete media. The cells were treated with indicated compounds for 14 days at 37°C. Colonies were stained by iodonitrotetrazolium chloride (Sigma-Aldrich, I8377) for overnight. The total area of each well was observed without magnification, and the number of colonies of each well were determined using ImageJ software (n = 3).
Figure 8 (A–F) Soft agar assay results for evaluating the effect of SIJ1795 and SIJ1772 on anchorage independent growth abilities on cancer cells harboring mtRAS. Cells were incubated with indicated compounds (0.01 µM or 0.1 µM) for 14 days. After staining with crystal violet, colonies were photographed without magnification. (G–L) Number of colonies (% of control) upon treatment with indicated compounds at 0.1 µM concentration were determined by ImageJ (n = 3, respectively). Statistical significance was calculated by a one-way ANOVA analysis (*p < 0.05, **p < 0.01, ***p < 0.001, ****p < 0.0001).

Assay [3] concerns OCI-AML3 (NRAS-Q61L). In words: Anti-proliferation assay on OCI-AML3. In kind it is cell-based, human. As to conditions: Homo sapiens, OCI-AML-3; 72 h treatment; average with SD (n = 3, duplicate). As to the method: (§2) Ba/F3-parental, OCI-AML3, U397 cells were purchased from DSMZ. MDA-MB-231, HCT-116, AsPC-1, H358, HT-29, SW480, and DU-145 cells were obtained from KCLB. MDA-MB-468 cells were obtained from ATCC. All cells were maintained in RPMI with 10% FBS and antibiotics. Cells were grown in a humidified 5% CO2 incubator at 37°C. Ba/F3-parental cells were grown in the presence of 10 ng/ml IL-3. NRAS-G12D or NRAS-G12V transformed Ba/F3 cell lines (Ba/F3-NRAS-G12D, and Ba/F3-NRAS-G12V, respectively) were cultured without IL-3, which were established by the procedure described as previously ([30]).
(§3) Approximately 3.0 × 10^3 cells/well were seeded in a 96-well cell culture plate. After stabilization, 1/3 serially diluted compound in DMSO was treated to the cell. […] All GI50 values were obtained in duplicate with three independent assays and averages with standard deviation are presented.

Assay [4] has as its system Ba/F3 cells transformed with mtRAS (NRAS-G12D and NRAS-G12V) and cancer cells harboring mtRAS. In words: Flow cytometry cell cycle analysis (PI). In kind it is cell-based. As to conditions: 1 μM, 24 h. As to the method:
For cell cycle analysis, cells (1 × 10^6 cells per sample) were incubated with each compounds for 24 h. Cells were subjected to brief ice-cold PBS washing and fixed with 70% EtOH for 1 h at −20°C. Cells were stained with PI/RNase staining solution (Cell signaling, #4087) and incubated 30 min at room temperature in a dark condition. Stained cells were subjected to flow cytometry analysis. Debris and unstained cells and were excluded by gating.
Figure 5 The effects of SIJ1795 and SIJ1772 on cell cycle arrest against in (A, B) Ba/F3 cells transformed with mtRAS (NRAS-G12D and NRAS-G12V) and (C, D) cancer cells harboring mtRAS. Cells were treated with 1 µM of SIJ1795, SIJ1772, and GNF-7 for 24 h. Cells were stained by PI and analyzed the percentage of cell cycle phase by flow cytometry.

The subject of assay [5] is MDA-MB-468 (KRAS, NRAS-wt). In words: Anti-proliferation assay on MDA-MB-468. As to conditions: for GI50: Homo sapiens, MDA-MB-468, 72 h treatment, average with SD (n = 3, duplicate); for antiproliferative activity fold lower on MDA-MB-468 cells than on HCT-116 harboring KRAS-G13D mutation: MDA-MB-468 versus HCT-116; for times less active on MDA-MB-468 cells harboring wtRAS than on SW480 cells with KRAS-G12V mutation: MDA-MB-468 versus SW480. In kind it is cell-based. As to the method:
as §2, §3

In assay [6] the test system is cancer cells harboring mtRAS. In words: Flow cytometry apoptosis analysis (annexin V/PI), cancer cells harboring mtRAS. In kind it is cell-based. As to conditions: 1 μM, 24 h. The method, then:
as §1
Figure 4 The effects of (A) SIJ1795 and (B) SIJ1772 on apoptosis induction in cancer cells harboring mtRAS. Cells were treated with 0.1 and 1 μM of SIJ1795 SIJ1772, and GNF-7 for 24 h. Western blot analysis was conducted to evaluate the cleaved PARP and level. GAPDH was used as a loading control. (C) Apoptotic cell population (annexin V-positive) was determined by flow cytometry analysis (n = 3). Cells were treated with 1 μM of indicated compounds for 24 h. Statistical significance was determined using a one-way ANOVA analysis (*p < 0.05, **p < 0.01, ***p < 0.001).

Assay [7] concerns H358 (KRAS-G12C). In words: Anti-proliferation assay on H358. As to conditions: Homo sapiens, NCI-H358; 72 h treatment; average with SD (n = 3, duplicate). In kind it is cell-based. As to the method: as §2, §3
Assay [8] has as its system cancer cells harboring mtRAS. Description: Colony formation assay (2D clonogenic assay). In kind it is cell-based. As to conditions: 0.1 μM, 14 days. As to the method:
Colony formation assay was conducted for 2D clonogenic assay. Approximately 1 × 10^3 cells/well were seeded in 6-well plate. After cellular attachment, indicated concentrations of compounds were treated for 14 days at 37°C. Colonies were stained by crystal violet solution for 30 min. The total area of each well was observed without magnification, and the number of colonies of each well were accessed using ImageJ software (n = 3).
Figure 7 (A–F) Colony formation assay results evaluating the effects of SIJ1795 and SIJ1772 on clonogenic abilities of on cancer cells harboring mtRAS. Cells were incubated with indicated compounds (0.01 µM or 0.1 µM) for 14 days. After staining with crystal violet, colonies were photographed without magnification. (G–L) Number of colonies (% of control) upon treatment with indicated compounds at 0.1 µM concentration were determined by ImageJ (n = 3, respectively). Statistical significance was calculated by using a one-way ANOVA analysis (**p < 0.01, ***p < 0.001, ****p < 0.0001).

The results in this text go back to PMC8695447, “Novel Small Molecules Capable of Blocking mtRAS-Signaling Pathway” (Frontiers in Oncology, 2021).

With `Cc1ccc(NC(=O)c2cccc(C(F)(F)F)c2)cc1N1Cc2cnc(Nc3cnn(C4CCN(S(C)(=O)=O)CC4)c3)nc2N(C)C1=O` [SIJ1772, N-(4-Methyl-3-(1-methyl-7-((1-(1-(methylsulfonyl)piperidin-4-yl)-1H-pyrazol-4-yl)amino)-2-oxo-1,4-dihydropyrimido[4,5-d]pyrimidin-3(2H)-yl)phenyl)-3-(trifluoromethyl)benzamide], the “apoptotic cells population (annexin V/PI) in Ba/F3-NRAS-G12D and Ba/F3-NRAS-G12V cells” value in assay [1] is given as “increase of apoptotic cells”. For the same molecule, the “anchorage independent cell growth” value in assay [2] is “suppressed”. In assay [3], growth was halved (GI50) at 0.065 ± 0.029 µM. Besides, the cell cycle arrest result in assay [4] is given as “G0/G1 arrest was induced”. For the same molecule, in assay [5], the GI50 (in general, the concentration that inhibits growth by half) amounted to 44.9 ± 6.25 µM; the “antiproliferative activity fold lower on MDA-MB-468 cells than on HCT-116 harboring KRAS-G13D mutation” value amounted to 1182 fold; the “times less active on MDA-MB-468 cells harboring wtRAS than on SW480 cells with KRAS-G12V mutation” value came to 101 times. The “apoptosis against cancer cells harboring mtRAS (annexin V/PI)” value in assay [6] is “induced apoptosis”. In assay [7], this molecule yielded a GI50 of 0.125 ± 0.017 µM. Besides, in assay [8], the colony formation result is listed as “suppressed”.
`CCN1CCN(c2cccc(Nc3ncc4c(n3)N(C)C(=O)N(c3cc(NC(=O)c5cccc(C(F)(F)F)c5)ccc3C)C4)c2)CC1` [SIJ1795, N-(3-(7-((3-(4-Ethylpiperazin-1-yl)phenyl)amino)-1-methyl-2-oxo-1,4-dihydropyrimido[4,5-d]pyrimidin-3(2H)-yl)-4-methylphenyl)-3-(trifluoromethyl)benzamide]: the “apoptotic cells population (annexin V/PI) in Ba/F3-NRAS-G12D and Ba/F3-NRAS-G12V cells” value in assay [1] was “increase of apoptotic cells”. Besides, the “anchorage independent cell growth” value in assay [2] is “suppressed”. In addition, in assay [3], the GI50 was 0.052 ± 0.052 µM. Further, the cell cycle arrest entry in assay [4] is on record as “G0/G1 arrest was induced”. For the same molecule, in assay [5], growth was halved (GI50) at 15.7 ± 5.31 µM, the “antiproliferative activity fold lower on MDA-MB-468 cells than on HCT-116 harboring KRAS-G13D mutation” value was determined as 476 fold and the “times less active on MDA-MB-468 cells harboring wtRAS than on SW480 cells with KRAS-G12V mutation” value is given as 64 times. In assay [6], the “apoptosis against cancer cells harboring mtRAS (annexin V/PI)” value was “induced apoptosis”. The molecule also yielded a 50% growth inhibitory concentration (GI50) in assay [7] of 0.203 ± 0.012 µM. For the same molecule, the colony formation entry in assay [8] is recorded as “suppressed”.
